Measured values as given in patent publication EP0049683A2, “Imidazo-rifamycines, process for their preparation, pharmaceutical preparations containing them and their use” (CIBA-GEIGY AG, priority 1980, dated 1982).
≈ marks a conversion by molar mass, not a printed value.

Columns and labels:
Assay in all cases: Agar dilution MIC in DST agar (Ericsson and Sherris)
Format in all cases: cell-based
Proteus morganii 2359 = details: for MIC: Morganella morganii, 2359, in vitro, read-out: MIC Prot. 2359; for MIC Prot. 2359: in vitro
Description: (§1) Die antibiotische Aktivität der Testverbindungen in vitro wurde durch die Agarverdünnungsmethode nach Ericsson, H.M., und Sherris, S.C., 1971, Acta Path. Microb. Scand. Section B, Suppl. No. 217, Bd. 1-90, in DST Agara ermittelt. Die gefundenen, das Wachstum der Testorganismen noch hemmenden Minimalkonzentrationen (MIC = minimum inhibiting concentrations) werden in Mikrogramm pro Milliliter (µg/ml) für die geprüften Verbindungen in der Tabelle 1 angegeben.

[1] = system: Staphylococcus aureus 10B; details: in vitro; for MIC: Staphylococcus aureus, 10B, read-out: MIC Staph. 10B
Description: as §1

Proteus morganii 1518 = details: for MIC: Morganella morganii, 1518, in vitro, read-out: MIC Prot. 1518; for MIC Prot. 1518: in vitro
Description: as §1

Escherichia coli 2018 = details: for MIC: Escherichia coli, 2018, in vitro, read-out: MIC Esch. 2018; for MIC Esch. 2018: in vitro
Description: as §1

[2] = system: Staphylococcus aureus 2999; details: for MIC: Staphylococcus aureus, 2999, in vitro, read-out: MIC Staph. 2999; for MIC Staph. 2999: in vitro
Description: as §1

[3] = system: Pseudomonas aeruginosa K 799/61; details: for MIC: Pseudomonas aeruginosa, K799/61, read-out: MIC Pseu. 799; for MIC Pseu. 799: in vitro, agar dilution, DST agar
Description: as §1

[4] = system: Salmonella Typhimurium 277; details: in vitro; for MIC: Salmonella enterica, TYPHIMURIUM, read-out: MIC Salm. 277
Description: as §1

Escherichia coli 205 = details: for MIC: Escherichia coli, 205, in vitro, read-out: MIC Esch. 205; for MIC Esch. 205: in vitro
Description: as §1

Row | Molecule | MIC (Proteus morganii 2359) [µg/mL] | MIC [1] [µg/mL] | MIC (Proteus morganii 1518) [µg/mL] | MIC (Escherichia coli 2018) [µg/mL] | MIC [2] [µg/mL] | MIC [3] [µg/mL] | MIC [4] [µg/mL] | MIC (Escherichia coli 205) [µg/mL] | MIC Prot. 2359 (Proteus morganii 2359) [µg/mL] | MIC Staph. 10B [1] [µg/mL] | MIC Prot. 1518 (Proteus morganii 1518) [µg/mL] | MIC Esch. 2018 (Escherichia coli 2018) [µg/mL] | MIC Staph. 2999 [2] [µg/mL] | MIC Pseu. 799 [3] [µg/mL] | MIC Salm. 277 [4] [µg/mL] | MIC Esch. 205 (Escherichia coli 205) [µg/mL]
1 | CC=C(CC)CN1CCN(c2nc3c([nH]2)c2c(O)c4c(O)c(C)c5c(c43)C(=O)[C@@](C)(O/C=C/[C@H](OC)[C@@H](C)[C@@H](OC(C)=O)[C@H](C)[C@H](O)[C@H](C)[C@@H](O)[C@@H](C)/C=C/C=C(/C)C(=O)N2)O5)CC1 [Verbindung 47, 4-[4-(2-Ethyl-2-butenyl)-piperazinyl]-imidazolo[4,5-c]-rifamycin SV] | 4 (≈ 4.5 µM) | 0.005 (≈ 0.00563 µM) | 4 (≈ 4.5 µM) | 4 (≈ 4.5 µM) | 0.005 (≈ 0.00563 µM) | 32 (≈ 36 µM) | 16 (≈ 18 µM) | 8 (≈ 9.01 µM) | – | – | – | – | – | – | – | –
2 | 4-(4-Morpholinocarbonylmethylpiperazinyl)-imidazolo-[4,5-c]rifamycin SV [Verbindung 73] | – | – | – | – | – | – | – | – | 32 | 0.05 | 32 | 128 | 0.05 | 128 | 128 | 128
3 | 4-(4-Isobutyl-2,5-dimethyl-piperazinyl)-imidazolo[4,5-c]-rifamycin SV [Verbindung 76] | – | – | – | – | – | – | – | – | 8 | 0.01 | 8 | 8 | 0.01 | 32 | 32 | 32
4 | CCCN(CC1CC1)c1nc2c3c(O)c4c(O)c(C)c5c(c4c2[nH]1)C(=O)C(C)(OC=CC(OC)C(C)C(OC(C)=O)C(C)C(O)C(C)C(O)C(C)C=CC=C(C)C(=O)N3)O5 (stereo not drawn) [Verbindung 11, 4-(N-Cyclopropylmethyl-N-propylamino)-imidazolo[4,5-c]rifamycin SV] | 8 (≈ 9.6 µM) | 0.01 (≈ 0.012 µM) | 2 (≈ 2.4 µM) | 8 (≈ 9.6 µM) | 0.01 (≈ 0.012 µM) | 8 (≈ 9.6 µM) | 32 (≈ 38.4 µM) | 8 (≈ 9.6 µM) | – | – | – | – | – | – | – | –
5 | 4-(4-Ethoxycarbonylpiperazinyl)-imidazolo[4,5-c]rifamycin SV [Verbindung 67] | – | – | – | – | – | – | – | – | 16 | 0.005 | 16 | 16 | 0.005 | 32 | 64 | 16
6 | 4-(4-Butylpiperazinyl)-imidazolo[4,5-c]rifamycin SV [Verbindung 33] | – | – | – | – | – | – | – | – | 4 | 0.001 | 4 | 2 | 0.001 | 32 | 32 | 8
7 | CO[C@H]1/C=C/O[C@@]2(C)Oc3c(C)c(O)c4c(O)c(c5nc(N6CCN(C7CCCC7)CC6)[nH]c5c4c3C2=O)NC(=O)/C(C)=C\C=C\[C@H](C)[C@H](O)[C@@H](C)[C@@H](O)[C@@H](C)[C@H](OC(C)=O)[C@@H]1C [Verbindung 50, 4-(4-Cyclopentylpiperazinyl)-imidazolo[4,5-c]rifamycin SV] | 8 (≈ 9.15 µM) | 0.01 (≈ 0.0114 µM) | 8 (≈ 9.15 µM) | 8 (≈ 9.15 µM) | 0.01 (≈ 0.0114 µM) | 8 (≈ 9.15 µM) | 32 (≈ 36.6 µM) | 8 (≈ 9.15 µM) | – | – | – | – | – | – | – | –
8 | 4-[4-(2-Ethoxyethyl)-piperazinyl]-imidazolo[4,5-c] rifamycin SV [Verbindung 64] | – | – | – | – | – | – | – | – | 16 | 0.01 | 16 | 16 | 0.005 | 16 | 64 | 16
9 | COC1C=COC2(C)Oc3c(C)c(O)c4c(O)c(c5nc(N(C)C(C)C)[nH]c5c4c3C2=O)NC(=O)C(C)=CC=CC(C)C(O)C(C)C(O)C(C)C(OC(C)=O)C1C (stereo not drawn) [Verbindung 8, 4-(N-Isopropyl-N-methylamino)-imidazolo[4,5-c]rifamycin SV] | 8 (≈ 10.1 µM) | 0.01 (≈ 0.0126 µM) | 8 (≈ 10.1 µM) | 8 (≈ 10.1 µM) | 0.01 (≈ 0.0126 µM) | 8 (≈ 10.1 µM) | 32 (≈ 40.4 µM) | 8 (≈ 10.1 µM) | – | – | – | – | – | – | – | –
10 | CO[C@H]1/C=C/O[C@@]2(C)Oc3c(C)c(O)c4c(O)c(c5nc(N6CCN(c7ccccn7)CC6)[nH]c5c4c3C2=O)NC(=O)/C(C)=C\C=C\[C@H](C)[C@H](O)[C@@H](C)[C@@H](O)[C@@H](C)[C@H](OC(C)=O)[C@@H]1C [Verbindung 59, 4-[4-(2-Pyridyl)-piperazinyl]-imidazolo[4,5-c]rifamycin SV] | 8 (≈ 9.06 µM) | 0.01 (≈ 0.0113 µM) | 2 (≈ 2.26 µM) | 8 (≈ 9.06 µM) | 0.01 (≈ 0.0113 µM) | 8 (≈ 9.06 µM) | 32 (≈ 36.2 µM) | 8 (≈ 9.06 µM) | – | – | – | – | – | – | – | –
11 | CCN1CCN(c2nc3c4c(O)c5c(O)c(C)c6c(c5c3[nH]2)C(=O)[C@@](C)(O/C=C/[C@H](OC)[C@@H](C)[C@@H](OC(C)=O)[C@H](C)[C@H](O)[C@H](C)[C@@H](O)[C@@H](C)/C=C/C=C(/C)C(=O)N4)O6)CC1 [Verbindung 31, 4-(4-Ethylpiperazinyl)-imidazolo[4,5-c]rifamycin SV] | – | – | – | – | – | – | – | – | 8 (≈ 9.59 µM) | 0.002 (≈ 0.0024 µM) | 8 (≈ 9.59 µM) | 8 (≈ 9.59 µM) | 0.001 (≈ 0.0012 µM) | 8 (≈ 9.59 µM) | 32 (≈ 38.4 µM) | 8 (≈ 9.59 µM)
12 | CO[C@H]1/C=C/O[C@@]2(C)Oc3c(C)c(O)c4c(O)c(c5nc(N6CCN(c7cccc(C(F)(F)F)c7)CC6)[nH]c5c4c3C2=O)NC(=O)/C(C)=C\C=C\[C@H](C)[C@H](O)[C@@H](C)[C@@H](O)[C@@H](C)[C@H](OC(C)=O)[C@@H]1C [Verbindung 53, 4-[4-(3-Trifluormethylphenyl)-piperazinyl]-imidazolo-[4,5-c]rifamycin SV] | 8 (≈ 8.42 µM) | 0.01 (≈ 0.0105 µM) | 2 (≈ 2.11 µM) | 8 (≈ 8.42 µM) | 0.01 (≈ 0.0105 µM) | 32 (≈ 33.7 µM) | 32 (≈ 33.7 µM) | 8 (≈ 8.42 µM) | – | – | – | – | – | – | – | –
13 | COC(CN(C)c1nc2c([nH]1)c1c(O)c3c(O)c(C)c4c(c32)C(=O)[C@@](C)(O/C=C/[C@H](OC)[C@@H](C)[C@@H](OC(C)=O)[C@H](C)[C@H](O)[C@H](C)[C@@H](O)[C@@H](C)/C=C/C=C(/C)C(=O)N1)O4)OC [Verbindung 15, 4-[N-(2,2-Dimethoxyethyl)-N-methylamino]-imidazolo[4,5-c]-rifamycin SV] | 4 (≈ 4.77 µM) | 0.005 (≈ 0.00596 µM) | 8 (≈ 9.54 µM) | 8 (≈ 9.54 µM) | 0.005 (≈ 0.00596 µM) | 16 (≈ 19.1 µM) | 32 (≈ 38.1 µM) | 8 (≈ 9.54 µM) | – | – | – | – | – | – | – | –
14 | 4-(4-Isopropylcarbamoylmethylpiperazinyl)-imidazolo-[4,5-c]rifamycin SV [Verbindung 72] | – | – | – | – | – | – | – | – | 32 | 0.05 | 32 | 32 | 0.05 | 64 | 128 | 32
15 | CO[C@H]1/C=C/O[C@@]2(C)Oc3c(C)c(O)c4c(O)c(c5[nH]c(N(C)CCN(C)C)nc5c4c3C2=O)NC(=O)/C(C)=C\C=C\[C@H](C)[C@H](O)[C@@H](C)[C@@H](O)[C@@H](C)[C@H](OC(C)=O)[C@@H]1C [Verbindung 17, 4-[N-Methyl-N-(2-dimethylaminoethyl)-amino]-imidazolo-[4,5-c]rifamycin SV] | 32 (≈ 38.9 µM) | 0.005 (≈ 0.00608 µM) | 64 (≈ 77.9 µM) | 64 (≈ 77.9 µM) | 0.005 (≈ 0.00608 µM) | 64 (≈ 77.9 µM) | 64 (≈ 77.9 µM) | 32 (≈ 38.9 µM) | – | – | – | – | – | – | – | –
